Reference: US20030027819A1, “Beta-sheet mimetics and methods relating to the use thereof” (Molecumetics Ltd., priority 1996, published 2003)
Several values for one entry are separate records, joined by “and”; a condition that tells them apart may be missing. Equal values may be shown once. Each block holds one compound with its values, some of them ahead of it.

Legend:
[1] = target: T1, Tissue Plasminogen Activator (t-PA) (Homo sapiens, UniProt P00750); assay: Tissue plasminogen activator inhibition assay (IC50, Example 4); assay type: biochemical
T1 sequence (P00750 36-562): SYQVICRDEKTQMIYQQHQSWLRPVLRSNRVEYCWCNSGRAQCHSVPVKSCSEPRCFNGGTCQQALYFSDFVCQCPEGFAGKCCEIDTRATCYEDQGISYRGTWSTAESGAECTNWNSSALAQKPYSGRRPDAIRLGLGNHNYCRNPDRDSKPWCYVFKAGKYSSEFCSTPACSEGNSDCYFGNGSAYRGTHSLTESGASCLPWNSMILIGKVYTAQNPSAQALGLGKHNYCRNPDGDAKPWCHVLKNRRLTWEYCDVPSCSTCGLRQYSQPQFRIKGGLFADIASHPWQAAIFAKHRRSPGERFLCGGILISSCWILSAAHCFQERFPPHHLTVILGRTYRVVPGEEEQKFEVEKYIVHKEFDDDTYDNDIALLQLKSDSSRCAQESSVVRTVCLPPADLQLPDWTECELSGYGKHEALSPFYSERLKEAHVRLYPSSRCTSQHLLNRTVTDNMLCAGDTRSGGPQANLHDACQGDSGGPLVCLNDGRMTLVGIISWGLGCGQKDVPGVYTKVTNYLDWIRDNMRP
Method: (§1) This solution (2.05 mM) served as the stock solution for all the inhibition assays. The hydrolysis of chromogenic substrates was monitored at 405 nm. The reaction progress curves were recorded by reading the plates typically 90 times with 30 seconds to 2 minute intervals. The initial rate were determined by unweighted nonlinear least-squares fitting to a first order reaction in GraFit.
Buffer, substrate and the dilution scheme of structure (13b) were the same as utilized for Factor VII assay.

bovine factor Xa = target: T2, bovine factor Xa (Bos taurus, UniProt P00743); assay: Factor X inhibition assay (IC50, Example 4); assay type: biochemical
T2 construct: 25 nM of bovine factor Xa (from Sigma); purchased Sigma
T2 sequence (P00743 234-492 limits assumed): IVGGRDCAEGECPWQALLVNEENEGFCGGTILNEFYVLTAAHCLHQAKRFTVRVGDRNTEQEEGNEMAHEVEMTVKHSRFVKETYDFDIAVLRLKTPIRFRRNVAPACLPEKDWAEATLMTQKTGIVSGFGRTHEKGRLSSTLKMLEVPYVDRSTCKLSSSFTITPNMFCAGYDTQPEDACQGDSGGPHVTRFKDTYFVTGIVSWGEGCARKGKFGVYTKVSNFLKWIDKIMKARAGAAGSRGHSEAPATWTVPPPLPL
T2 sequence (P00743 41-180 limits assumed): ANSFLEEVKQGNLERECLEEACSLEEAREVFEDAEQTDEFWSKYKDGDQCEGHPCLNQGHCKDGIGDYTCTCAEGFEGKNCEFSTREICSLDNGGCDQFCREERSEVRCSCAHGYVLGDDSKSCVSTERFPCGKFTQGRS
Method: as §1
In the Factor X assay, buffer and substrate are the same as used for thrombin assay. A 1:100 dilution was made into pH 8.4 Tris buffer to serve as the first point. Seven dilutions with a dilution factor of 2 were made. The assay protocol is the same as for thrombin except 25 nM of bovine factor Xa (from Sigma) in pH 8.4 Tris buffer was used instead of thrombin.

control plasma = assay: Prothrombin time (PT) in control plasma; assay type: biochemical
Method: Then 200 μl of prewarmed (at 37° C. for ˜10 minutes) thromboplastin with calcium (from Sigma) was rapidly added into the plasma sample.

bovine trypsin = target: T3, bovine trypsin (Bos taurus, UniProt P00760); assay: Trypsin inhibition assay (IC50, Example 4); assay type: biochemical
T3 construct: purchased Sigma
T3 sequence (P00760 24-246): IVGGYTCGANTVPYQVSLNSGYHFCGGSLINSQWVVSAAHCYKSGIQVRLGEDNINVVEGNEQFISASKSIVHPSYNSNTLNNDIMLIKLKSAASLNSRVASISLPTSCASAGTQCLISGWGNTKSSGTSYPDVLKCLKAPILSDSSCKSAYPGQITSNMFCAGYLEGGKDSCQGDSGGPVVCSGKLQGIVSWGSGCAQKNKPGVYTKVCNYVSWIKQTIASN
Method: as §1
In the trypsin assay, pH 7.8 Tris (0.10 M Tris and 0.02 M CaCl2) was utilized as the buffer. BAPNA (from Sigma) was used at 1 mg/ml in 1% DMSO (v/v) deionized water solution as substrate. The same dilutions of structure (13b) were made as for Factor VII assay.

urokinase [2] = target: T4, urokinase (Homo sapiens, UniProt P00749); assay: Urokinase inhibition assay (IC50, Example 4); assay type: biochemical; set-up: purchased Sigma
Method: as §1
In the urokinase assay, buffer was pH 8.8 0.05 M Tris and 0.05 M NaCl in deionized water. S-2444 (from Sigma), pyroGlu-Gly-Arg-pNA at 0.5 mM in water was utilized as substrate. The same dilution procedure was used as for Factor VII and Factor X. Assay protocol is the same as for thrombin except 18.5 nM of human urokinase (from Sigma) was utilized.

FVIIa and TF complex = target: T5, FVIIa and TF complex (Homo sapiens, UniProt P08709); assay: Factor VII inhibition assay (IC50, Example 4); assay type: biochemical
T5 construct: 50 μl of 16 nM FVIIa and TF complex solution
T5 sequence (P08709 213-466 limits assumed): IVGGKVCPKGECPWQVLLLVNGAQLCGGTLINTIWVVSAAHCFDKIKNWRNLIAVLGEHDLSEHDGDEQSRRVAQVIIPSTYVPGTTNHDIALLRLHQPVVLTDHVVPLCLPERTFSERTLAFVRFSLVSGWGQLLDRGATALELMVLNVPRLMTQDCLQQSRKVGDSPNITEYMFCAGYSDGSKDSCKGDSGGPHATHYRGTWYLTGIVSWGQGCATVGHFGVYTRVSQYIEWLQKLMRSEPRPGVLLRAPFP
T5 sequence (P08709 61-212 limits assumed): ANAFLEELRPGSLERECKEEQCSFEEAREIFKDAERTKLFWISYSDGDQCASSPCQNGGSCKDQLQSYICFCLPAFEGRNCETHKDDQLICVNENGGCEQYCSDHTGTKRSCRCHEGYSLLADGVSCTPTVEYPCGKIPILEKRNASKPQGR
T5 sequence (P13726 33-295 partner): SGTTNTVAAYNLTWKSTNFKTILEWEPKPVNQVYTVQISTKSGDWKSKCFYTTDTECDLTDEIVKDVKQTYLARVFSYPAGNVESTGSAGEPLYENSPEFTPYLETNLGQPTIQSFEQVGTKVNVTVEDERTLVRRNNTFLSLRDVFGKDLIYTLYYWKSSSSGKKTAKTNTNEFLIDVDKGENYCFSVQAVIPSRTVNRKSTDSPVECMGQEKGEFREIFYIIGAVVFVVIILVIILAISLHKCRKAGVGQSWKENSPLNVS
Method: as §1
In the Factor VII assay, S-2288 (from Pharmacia), D-Ile-Pro-Arg-pNA was used at […] in deionized water as substrate. […] This dilution served as the first point of the inhibitor (20 μM). From this concentration point 6 more sequential dilutions were made with a dilution factor of 2. 50 μl of 16 nM FVIIa and TF complex solution and 40 μl of the inhibitor solutions were added into each well, the mixtures were incubated for 20 minutes before 10 μl of 20 mM S-2288 was added.

Plasmin [3] = target: T6, Plasmin (Bos taurus, UniProt P06868); assay: Plasmin inhibition assay (IC50, Example 4); assay type: biochemical
T6 sequence (P06868 584-812 limits assumed): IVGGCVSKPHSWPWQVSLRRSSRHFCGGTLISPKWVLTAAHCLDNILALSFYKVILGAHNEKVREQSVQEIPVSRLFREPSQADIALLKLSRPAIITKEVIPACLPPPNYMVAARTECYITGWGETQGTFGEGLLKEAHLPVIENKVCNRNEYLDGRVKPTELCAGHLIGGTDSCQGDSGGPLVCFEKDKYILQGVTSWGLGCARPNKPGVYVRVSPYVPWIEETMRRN
T6 sequence (P06868 104-583 limits assumed): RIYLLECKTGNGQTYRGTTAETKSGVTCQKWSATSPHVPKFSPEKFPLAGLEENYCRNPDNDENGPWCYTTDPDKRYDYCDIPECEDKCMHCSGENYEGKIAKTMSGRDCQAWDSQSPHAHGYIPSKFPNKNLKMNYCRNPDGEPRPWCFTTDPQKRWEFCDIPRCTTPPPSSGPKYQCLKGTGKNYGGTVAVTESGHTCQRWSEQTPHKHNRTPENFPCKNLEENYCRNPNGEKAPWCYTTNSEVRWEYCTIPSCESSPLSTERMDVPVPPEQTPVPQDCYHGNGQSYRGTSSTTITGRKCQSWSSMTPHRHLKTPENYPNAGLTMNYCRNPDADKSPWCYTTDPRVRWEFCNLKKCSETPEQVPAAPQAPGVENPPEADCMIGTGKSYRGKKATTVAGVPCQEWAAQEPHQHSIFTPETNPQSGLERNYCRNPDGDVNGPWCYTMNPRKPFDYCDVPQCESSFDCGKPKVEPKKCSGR
Method: as §1
For dilutions of structure (13b) (see urokinase assay).

[4] = target: T7, human Factor VIIa (FVIIa) and human tissue factor (TF) (Homo sapiens, UniProt P08709); assay: Factor VII assay, hydrolysis of structure (11b) as proteolytic substrate; assay type: biochemical; conditions: ratio of kcat/KM
T7 construct: 10 μl of 20 μM human Factor VIIa (FVIIa)
T7 sequence (P08709 213-466 limits assumed): as the sequence (P08709 213-466 limits assumed) above
T7 sequence (P08709 61-212 limits assumed): as the sequence (P08709 61-212 limits assumed) above
T7 sequence (P13726 33-295 partner): as the sequence (P13726 33-295 partner) above
Method: (§2) Both the thrombin and Factor VII assays of this experiment were carried out at 37° C. using a Hitachi UV/Vis spectrophotometer (model U-3000). Structure (11b) was dissolved in deionized water. The concentration was determined from the absorbance at 342 nm. […] Initial velocities were calculated from the initial linear portion of the reaction progress curve. Kinetic parameters were determined by unweighted nonlinear least-squares fitting of the simple Michaelis-Menten equation to the experimental data using GraFit (Version 3.0, Erithacus Software Limited).
For the Factor VII assay, pH 8.0 Tris buffer (0.05 M Tris, 5 mM CaCl2, 0.15 M NaCl, 0.1% TWEEN 20, 0.1% BSA) was used. 10 μl of 20 μM human Factor VIIa (FVIIa) and 22 μM of human tissue factor (TF) was brought to assay buffer to make 160 nM FVIIa and TF solutions, respectively. […] The initial 3 minutes reaction progress curves were recorded. […] The kcat/KM was calculated from the slope and found to be 17,500 M^−1s^−1.
(§3) In both the thrombin and Factor VII assay of this experiment, (D)FPR-PNA was run as a control.

bovine thrombin = target: T8, bovine thrombin (Bos taurus, UniProt P00735); assay: Thrombin assay, hydrolysis of structure (11b) as proteolytic substrate; assay type: biochemical
T8 construct: 6.4 NIH units of bovine thrombin (from Sigma); purchased Sigma
Method: as §2
For the thrombin assay, experiments were performed in pH 8.4 Tris buffer (Tris, 0.05M; NaCl, 0.15M). 6.4 NIH units of bovine thrombin (from Sigma) were dissolved into 10 ml of the assay buffer to yield 10 nM thrombin solution. […] The first two minutes of the reactions were recorded for initial velocity determination.
as §3

urokinase [5] = target: T4, urokinase; assay: Urokinase inhibition assay (Ki, Example 5); assay type: biochemical
Plasmin [6] = target: T6, Plasmin; assay: Plasmin inhibition assay (Ki, Example 5); assay type: biochemical, bovine
Method: (§4) The reaction progress curves were recorded by reading the plates, typically 60 times with 30 second to 2 minute intervals. Initial rates were determined by unweighted nonlinear least-squares fitting to a first order reaction in GraFit (Erithacus Software Limited, London, England).

factor VII = factor VII (Homo sapiens, UniProt P08709); assay: Factor VII inhibition assay (Ki, Example 5); assay type: biochemical
factor VII, sequence (P08709 213-466 limits assumed): as the sequence (P08709 213-466 limits assumed) above
factor VII, sequence (P08709 61-212 limits assumed): as the sequence (P08709 61-212 limits assumed) above
factor VII, sequence (P13726 33-295 partner): as the sequence (P13726 33-295 partner) above
Method: as §4
From this concentration point seven more sequential dilutions were made for the assay.

factor X = factor X (Bos taurus, UniProt P00743); assay: Factor X inhibition assay (Ki, Example 5), bovine plasma enzyme; assay type: biochemical; conditions: bovine plasma enzyme (Example 5 protocol)
factor X, sequence (P00743 234-492 limits assumed): as the sequence (P00743 234-492 limits assumed) above
factor X, sequence (P00743 41-180 limits assumed): as the sequence (P00743 41-180 limits assumed) above
Method: as §4, with “The hydrolysis of chromogenic substrates was monitored at 405 nm. The” for “The”
Buffer and substrate were the same as used for thrombin assay. A 1:100 dilution was made in the pH8.0 tris buffer to serve as the first point. Seven more dilutions from the first were made for the assay.

trypsin = target: T9, trypsin (Bos taurus, UniProt P00760); assay: Trypsin inhibition assay (Ki, Example 5); assay type: biochemical, bovine
T9 sequence (P00760 24-246): T3 sequence (P00760 24-246)
Method: as §4

[7] = target: Activated Protein C (aPC) (Homo sapiens, UniProt P04070); assay: Activated Protein C inhibition assay (Ki, Example 5); assay type: biochemical
Activated Protein C (aPC), sequence (P04070 212-461 limits assumed): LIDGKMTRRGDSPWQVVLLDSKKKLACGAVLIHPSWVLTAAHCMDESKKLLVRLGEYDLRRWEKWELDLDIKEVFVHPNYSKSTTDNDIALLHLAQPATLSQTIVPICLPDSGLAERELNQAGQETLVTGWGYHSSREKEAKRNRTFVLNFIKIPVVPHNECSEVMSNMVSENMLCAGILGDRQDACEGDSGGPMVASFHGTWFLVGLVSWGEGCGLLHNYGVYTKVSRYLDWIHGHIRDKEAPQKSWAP
Activated Protein C (aPC), sequence (P04070 43-197 limits assumed): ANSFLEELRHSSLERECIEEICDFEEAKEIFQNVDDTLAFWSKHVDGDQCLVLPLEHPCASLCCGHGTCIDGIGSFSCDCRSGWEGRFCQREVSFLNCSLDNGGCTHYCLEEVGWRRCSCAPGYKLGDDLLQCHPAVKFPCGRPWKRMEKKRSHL

thrombin = thrombin (Bos taurus, UniProt P00735); assay: Thrombin inhibition assay (Ki, Example 5); assay type: biochemical, bovine; set-up: thrombin; bovine plasma; 0.66; from tissue; host or cells: bovine plasma
Method: as §4
Seven sequential dilutions were made from the first point for the assay.

[8] = target: T1, Tissue Plasminogen Activator (t-PA); assay: t-PA inhibition assay (Ki, Example 5); assay type: biochemical; conditions: read-out: Ki t-PA
Method: as §4

Factor XI = Factor XI (Homo sapiens, UniProt P03951); assay: Factor XI inhibition assay (Ki, Example 8); assay type: biochemical
Factor XI, sequence (P03951 388-625 limits assumed): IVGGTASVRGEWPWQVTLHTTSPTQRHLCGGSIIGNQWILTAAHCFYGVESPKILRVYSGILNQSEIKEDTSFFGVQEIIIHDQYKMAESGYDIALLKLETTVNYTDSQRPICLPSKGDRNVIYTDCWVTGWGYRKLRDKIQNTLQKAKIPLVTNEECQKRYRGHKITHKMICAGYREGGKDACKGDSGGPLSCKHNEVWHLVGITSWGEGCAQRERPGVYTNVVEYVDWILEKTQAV
Factor XI, sequence (P03951 19-387 limits assumed): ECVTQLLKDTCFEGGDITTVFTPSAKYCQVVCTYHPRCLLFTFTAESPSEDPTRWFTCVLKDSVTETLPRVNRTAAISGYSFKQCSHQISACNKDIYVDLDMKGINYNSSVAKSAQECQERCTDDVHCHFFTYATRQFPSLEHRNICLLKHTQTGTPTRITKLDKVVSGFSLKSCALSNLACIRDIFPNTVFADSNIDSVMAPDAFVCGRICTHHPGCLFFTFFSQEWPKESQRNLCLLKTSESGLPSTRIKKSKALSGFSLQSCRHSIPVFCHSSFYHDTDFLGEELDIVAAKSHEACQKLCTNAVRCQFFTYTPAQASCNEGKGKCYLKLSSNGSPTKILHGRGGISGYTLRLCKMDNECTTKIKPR
Method: as §4
Factor XI. The same buffer was utilized in this assay as in the thrombin assay. […] From this 100 μM solution, seven serial 1:5 dilutions were made in buffer for assay.

tryptase = tryptase (Homo sapiens, UniProt Q15661); assay: Tryptase inhibition assay (Ki, Example 5); assay type: biochemical
tryptase, sequence (Q15661 31-275): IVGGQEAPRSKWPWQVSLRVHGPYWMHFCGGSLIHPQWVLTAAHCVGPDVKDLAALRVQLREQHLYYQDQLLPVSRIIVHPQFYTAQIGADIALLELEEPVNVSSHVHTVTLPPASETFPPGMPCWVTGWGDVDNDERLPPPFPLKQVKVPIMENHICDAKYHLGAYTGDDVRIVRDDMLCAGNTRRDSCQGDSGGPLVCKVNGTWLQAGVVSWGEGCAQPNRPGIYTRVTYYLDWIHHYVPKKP

IC50 [1]: 106 nM
IC50 (bovine factor Xa): 165 nM
IC50 (bovine trypsin): 212 nM
IC50 (FVIIa and TF complex): 200 nM
IC50 (Plasmin [3]): 699 nM
SMILES: N=C(N)NCCC[C@H](NC(=O)[C@@H]1CCCN1C(=O)[C@H](N)Cc1ccccc1)C(=O)CCl [PPACK, reference compound]
PT (control plasma; Concentration 500 pM): 15 s
PT (control plasma; Concentration 1 nM): 18 s
PT (control plasma; Concentration 10 nM): 22 s
PT (control plasma; Concentration 20 nM): 25 s
PT (control plasma; Concentration 40 nM): 28 s
PT (control plasma; Concentration 60 nM): 30 s
PT (control plasma; Concentration 80 nM): 31 s

Activity compared to the control (D)FPR-PNA [4]: 1.38
kcat (bovine thrombin; substrate hydrolysis, pH 8.4 Tris, 37° C.): 50 s⁻¹
Activity compared to the control (D)FPR-PNA (bovine thrombin; thrombin, ratio of kcat/KM): 0.76
SMILES: N=C(N)NCCC[C@H](NC(=O)[C@@H]1CCN2CC[C@@](N)(Cc3ccccc3)C(=O)N12)C(=O)Nc1ccc([N+](=O)[O-])cc1 [Structure 11b]

Ki (urokinase [5]): 335 nM
Ki (Plasmin [6]): 251 nM
Ki (factor VII): 200 nM
Ki (factor X): 17 nM
Ki (trypsin): 0.2 nM and 0.23 nM
Ki [7]: 1250 nM
Ki (thrombin): 0.085 nM
Ki [8]: 92.9 nM
Ki (Factor XI): 75.3 nM
Ki (tryptase): 9 nM
SMILES: N=C(N)NCCC[C@H](NC(=O)[C@@H]1CC[C@@H]2CC[C@@](N)(Cc3ccccc3)C(=O)N21)C(=O)c1nc2ccccc2s1 [Structure 29b]
